In PubChem BioAssay (NCI):
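Tested at 5 concentrations; 48 h exposure; 96-well plates; endpoints linearly interpolated, else capped at highest concentration. Abbreviation: GI50, concentration required for 50% inhibition of growth. The concentration for full growth arrest is given as TGI.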

Key:
Assay in all cases: NCI tumour cell line growth inhibition, 48 h
[1] = system: RXF 393 renal
[2] = system: MALME-3M melanoma
[3] = system: TK-10 renal
[4] = system: UACC-62 melanoma
[5] = system: SR leukemia
[6] = system: BT-549 breast
[7] = system: HT29 colon
[8] = system: SK-MEL-28 melanoma
[9] = system: RPMI-8226 leukemia
[10] = system: SK-OV-3 ovarian

## CC(C)NC(=O)OCc1c(COC(=O)NC(C)C)c(-c2ccc[n+](COC(=O)C3CC3)c2)n2c1CCC2
[1]
  TGI: > 100 µM
[2]
  TGI: > 100 µM
[3]
  TGI: > 100 µM
[4]
  TGI: > 100 µM
[5]
  TGI: > 100 µM
[6]
  TGI: > 100 µM
[7]
  TGI: > 100 µM
[8]
  TGI: > 100 µM
[9]
  TGI: > 100 µM
[10]
  TGI: > 100 µM

## O=C1/C(=C/c2ccccc2)CN(CCC(=O)N2C/C(=C\c3ccccc3)C(=O)/C(=C/c3ccccc3)C2)C/C1=C\c1ccccc1
[1]
  GI50: 6.65 µM
  TGI: 19.9 µM
[2]
  GI50: 22.3 µM
  TGI: 64.3 µM
[3]
  GI50: 18.3 µM
  TGI: 43.9 µM
[4]
  GI50: 7.19 µM
  TGI: 33.9 µM
[5]
  GI50: 0.295 µM
  TGI: > 100 µM
[6]
  GI50: 9.91 µM
  TGI: 36.4 µM
[7]
  GI50: 0.635 µM
  TGI: > 55.9 µM
[8]
  GI50: 23.4 µM
  TGI: 74.5 µM
[9]
  GI50: 0.046 µM
  TGI: 0.5 µM
[10]
  GI50: 24.9 µM
  TGI: > 75.2 µM

## CN(C)c1ccc2cc(-c3cc4c(oc3=O)-c3ccccc3OC4O)c(=O)oc2c1 (stereo unspecified)
[1]
  GI50: 2.69 µM
  TGI: 6.53 µM
[2]
  GI50: 5.98 µM
  TGI: 14.6 µM
[3]
  GI50: 6.63 µM
  TGI: 19.8 µM
[4]
  GI50: 4.08 µM
  TGI: 8.53 µM
[5]
  GI50: 3.19 µM
  TGI: 9.96 µM
[6]
  GI50: 2.11 µM
  TGI: 6.72 µM
[7]
  GI50: 5.73 µM
  TGI: 21.8 µM
[8]
  GI50: 8.24 µM
  TGI: > 25 µM
[9]
  GI50: 0.439 µM
  TGI: 4.71 µM
[10]
  GI50: 5.96 µM
  TGI: 19.8 µM

## CC1OC(O[C@H]2/C=C/C=C/C=C/C=C/C=C/C=C/C=C/[C@H](C)[C@@H](O)[C@@H](C)[C@H](C)OC(=O)C[C@H](O)C[C@H](O)CC[C@@H](O)[C@H](O)C[C@H](O)C[C@]3(O)C[C@H](O)[C@@H](C(=O)O)[C@H](C2)O3)C(O)C(N)C1O (stereo partly specified)
[1]
  TGI: 18.2 µM
[2]
  GI50: 5.47 µM
  TGI: 15.3 µM
[3]
  GI50: 27.2 µM
  TGI: 46.3 µM
[4]
  GI50: 21.8 µM
  TGI: 43.9 µM
[5]
  TGI: 44.8 µM
[6]
  GI50: 20.6 µM
  TGI: 68.1 µM
[7]
  TGI: 56.4 µM
[8]
  GI50: 12 µM
  TGI: 35.2 µM
[9]
  GI50: 23.9 µM
  TGI: 60.3 µM
[10]
  TGI: 70.1 µM

## O=c1ccccc(-c2ccc(-c3ccco3)cc2)c1O
[1]
  GI50: 0.951 µM
  TGI: 17.2 µM
[2]
  GI50: 2.77 µM
  TGI: 26.3 µM
[3]
  GI50: 0.819 µM
  TGI: 82.9 µM
[4]
  GI50: 0.588 µM
  TGI: 4.14 µM
[5]
  GI50: 0.581 µM
  TGI: 19.8 µM
[6]
  GI50: 1.65 µM
  TGI: 28 µM
[7]
  GI50: 1.7 µM
  TGI: 65.6 µM
[8]
  GI50: 0.79 µM
  TGI: 17.8 µM
[9]
  GI50: 0.756 µM
  TGI: > 100 µM
[10]
  GI50: 1.22 µM
  TGI: 24 µM

## O=C(O[C@H]1CN[C@H](C#Cc2cc3ncnc(Nc4ccc(OCc5cccc(F)c5)c(Cl)c4)c3s2)C1)N1CCOCC1
[1]
  GI50: 5.85 µM
  TGI: > 16.6 µM
[2]
  GI50: 4.95 µM
  TGI: 10.2 µM
[3]
  GI50: 0.17 µM
  TGI: 8.41 µM
[4]
  GI50: 13.4 µM
  TGI: > 25 µM
[5]
  GI50: 8.01 µM
  TGI: > 23.7 µM
[6]
  GI50: 4.28 µM
  TGI: 8.69 µM
[7]
  GI50: 5.7 µM
  TGI: 11.4 µM
[8]
  GI50: 12.4 µM
  TGI: > 25 µM
[9]
  GI50: 4.48 µM
  TGI: 17.3 µM
[10]
  GI50: 0.0356 µM
  TGI: > 25 µM

## N/C(=N\c1nc2ccccc2s1)NC(=O)Nc1ccccc1Cl
[1]
  GI50: 0.0983 µM
  TGI: 1.56 µM
[2]
  GI50: 0.667 µM
  TGI: 13.2 µM
[3]
  GI50: 4.11 µM
  TGI: 18.7 µM
[4]
  GI50: 0.125 µM
  TGI: > 78.9 µM
[5]
  GI50: 0.0411 µM
  TGI: > 32.7 µM
[6]
  GI50: 0.421 µM
  TGI: 4.86 µM
[7]
  GI50: 0.105 µM
  TGI: 6.31 µM
[8]
  GI50: 3.59 µM
  TGI: > 100 µM
[9]
  GI50: 0.144 µM
  TGI: 9.28 µM
[10]
  GI50: 0.643 µM
  TGI: 25.3 µM

## CN(C1=NS(=O)(=O)N=C(N(C)c2ccccc2)O1)c1ccccc1
[1]
  TGI: 20.4 µM
[2]
  TGI: 49.7 µM
[3]
  TGI: 80.2 µM
[4]
  TGI: 28 µM
[5]
  TGI: 44.7 µM
[6]
  TGI: 39 µM
[7]
  TGI: 54.3 µM
[8]
  TGI: 43.3 µM
[9]
  TGI: 43.9 µM
[10]
  TGI: 78.8 µM

## COc1cc(C)[nH]c(=O)c1CN1CCc2c(Cl)cc([C@H](OC)C3COC3)c(Cl)c2C1=O
[1]
  GI50: > 100 µM
  TGI: > 100 µM
[2]
  GI50: > 100 µM
  TGI: > 100 µM
[3]
  GI50: > 100 µM
  TGI: > 100 µM
[4]
  GI50: > 100 µM
  TGI: > 100 µM
[5]
  GI50: > 100 µM
  TGI: > 100 µM
[6]
  GI50: > 100 µM
  TGI: > 100 µM
[7]
  GI50: > 100 µM
  TGI: > 100 µM
[8]
  GI50: > 100 µM
  TGI: > 100 µM
[9]
  GI50: > 100 µM
  TGI: > 100 µM
[10]
  GI50: > 100 µM
  TGI: > 100 µM

## O=C1CC2C(=O)C1C(C(=O)O)C2C(=O)O (stereo unspecified)
[1]
  TGI: > 100 µM
[2]
  TGI: > 100 µM
[3]
  TGI: > 100 µM
[4]
  TGI: > 100 µM
[5]
  TGI: > 100 µM
[6]
  TGI: > 100 µM
[7]
  TGI: > 100 µM
[8]
  TGI: > 100 µM
[9]
  TGI: > 100 µM
[10]
  TGI: > 100 µM

## COc1ccc(-c2nc(N)c3ncn(C4OC(CO)C(O)C4O)c3n2)cc1 (stereo unspecified)
[1]
  TGI: > 100 µM
[2]
  TGI: > 100 µM
[3]
  TGI: > 100 µM
[4]
  TGI: > 100 µM
[5]
  TGI: > 100 µM
[6]
  TGI: > 100 µM
[7]
  TGI: > 100 µM
[8]
  TGI: > 100 µM
[9]
  TGI: > 100 µM
[10]
  TGI: > 100 µM
